# Source: patent publication US11072592B2, “Small molecules that enable cartilage rejuvenation” (The Regents of the University of California, priority 2015, dated 2021)
# “Also recorded” adds a separate entry of the source. Like-named read-outs stand apart in the source and are kept apart here.
# Assays:
# pSTAT3 and MYC = experiment: Western blot of pSTAT3 and MYC in adult pig articular chondrocytes; type: cell-based; conditions: for levels of MYC / levels of pSTAT3: adult pig articular chondrocytes, treated vs untreated, relative to histone H3
# Excerpt: Only early passages of chondrocytes (passage 0-2) were used for experimentation to avoid de-differentiation and loss of cartilage phenotype (Wu et al., 2014). Cartilage explants were made using 1, 2 or 8 mm biopsy punch and wet weight of each explant determined prior to experimentation. For cell isolation cartilage tissue was digested as described previously (Wu et al., 2015). Postnatal paraffin embedded joint and growth plate specimens were kindly donated by Dr Marcel Karperien from the University of Twente (Netherlands) and Dr Nick Bernthal from University of California Los Angeles. All donated material was anonymous and carried no personal identifiers. Cell culture reagents were purchased from Life Technologies, Inc. (Grand Island, N.Y.). Growth factors LIF, OSM, IL-6, TNF-α, IL-1β were purchased from Life Technologies, Inc (Grand Island, N.Y.). STATTIC, 10058-F4, SCl44 hydrochloride, and CP-690550 were purchased from Sigma Aldrich (St. Louis, Mo.). RCGD 423 (N-(4-Bromophenyl)-4-phenyl-1,3-thiazol-2-amine) was synthesized and provided by MolPort (Riga, Latvia). Fetal, adult and pig chondrocytes were cultured in DMEM F12 medium containing 10% (vol/vol) fetal bovine serum and 1% Penicillin-Streptomycin (vol/vol) at 37° C. in a humidified atmosphere of 95% aid and 5% CO2. Media was replenished with DMEM F12 medium containing 1% (vol/vol) fetal bovine serum and 1% Penicillin-Streptomycin (vol/vol) once treatments were added. For 3-dimensional (3D) cell cultures adult human articular chondrocytes were incubated with or without RCGD 423 using 10% solution of Mebiol® hydrogel from Cosmo Bio (Carlsbad, Calif.) in X-vivo 15 serum free medium from Lonza (Walkersville, Md.) as described previously (Wu et al., 2014).
# (§1) Treated and non-treated ells were lysed in RIPA Lysis and Extraction Buffer (Pierce, Rockford, Ill.) containing protease inhibitors (Pierce) followed by sonication with a 15-second pulse at a power output of 2 using the VirSonic 100 (SP Industries Company, Warminster, Pa.). Protein concentrations were determined by BCA protein assay (Pierce). Proteins were resolved with SDS-PAGE utilizing 4-15% Mini-PROTEAN TGX Precast Gels and transferred to Trans-Blot Turbo Transfer Packs with a 0.2-μm pore-size nitrocellulose membrane. The SDS-PAGE running buffer, 4-15% Mini-PROTEAN TGX Precast Gels, Trans-Blot Turbo Transfer Packs with a 0.2-μm pore-size nitrocellulose membrane were purchased from Biorad (Hercules, Calif.). Nitrocellulose membranes were blocked in 5% nonfat milk in 0.05% (v/v) Tween 20 (PBST) (Corning, Manassas, Va.). Membranes were then incubated with primary antibodies phospho-STAT3 (#9131), MYC (#5605), NF-κB p65 (#D14E12), pAKT (#9272) Histone 3 (#9715) from Cell Signaling, (Danvers, Mass.); MEK1/2 (ab70613) and p38 (ab795) from Abcam (Cambridge, Mass.) overnight. After washing in PBS containing 0.05% (v/v) Tween 20 (PBST), membranes were incubated with Goat anti-Rabbit IgG (H+L) Secondary Antibody (Thermo Scientific Rockford, Ill.). After washing, membranes were developed with the Clarity Western ECL Blotting Substrate (Hercules, Calif.).
# [1] = system: MAPK, AKT, NF-κB pathways; experiment: Western blot of MAPK, AKT and NF-κB signaling in adult pig articular chondrocytes; type: cell-based; conditions: 24 hours
# Description: (§2) FIGS. 30A-30B. […] (FIG. 30A) Adult pig articular chondrocytes were cultured for 24 hours with the indicated cytokines or RCGD 423 and the levels of pSTAT3 and MYC were measured with respect to histone H3. Representative data for other proteins in the MAPK (p38 and MEK1/2), AKT (phospho-AKT; pAKT) or NF-KB (NF-KB p65) are also shown. (FIG. 30B) Levels of transcription of genes indicative of a catabolic response were determined via quantitative PCR in adult pig articular chondrocytes treated with OSM, IL-6, TNF-α, LIF or RCGD 423. Data are represented at mean±SD.
# (§3) Cartilage degeneration is generally considered a feed-forward process, in which small losses of chondrocytes result in microenvironmental changes including induction of an inflammatory response and other pro-catabolic events (Hunziker, 2002). In turn, these alterations in the joint milieu promote production of matrix degrading proteins including MMPs (collagenases) and proteins of the ADAMTS family (aggrecanases). LIF has been implicated in promoting this cycle of matrix destruction during the pathogenesis of osteoarthritis (Hui et al., 2000; Lotz et al., 1992), although its role in this process has been controversial. In order to better understand the mechanism of action of LIF, RCGD 423 and known pro-inflammatory cytokines in the promotion of degeneration, we stimulated adult pig articular chondrocytes with these molecules and quantitated the levels of activated downstream proteins that mediate the cellular signaling response (FIG. 30A).
# as §1
# [2] = system: MMP13, ADAMTS4 and ADAMTS5; experiment: Quantitative PCR of catabolic genes in adult pig articular chondrocytes; type: cell-based
# Description: as §2, §3
# Total RNA was extracted using RNeasy Micro Kit (QIAGEN, Valencia, Calif.) according to the manufacturer's protocol. Quantitative reverse transcription PCR was performed using Bio-Rad T100 Thermal Cycler (Bio-Rad, Hercules, Calif.). Primer sequences are available upon request.
# BMPR1B+ chondrocytes = experiment: Retention of BMPR1B+ chondrocytes in culture (flow cytometry); type: cell-based, pig
# Description: FIG. 35. RCGD 423 Preserves BMPR1B+ Chondrocytes in Culture. Adult pig chondrocytes were cultured in the presence of various cytokines or RCGD 423 and the number of cells expressing BMPR1B were quantitated using flow cytometry. Know mitogens for cartilage, including PDGF-BB and FGF2, promoted dramatic loss of BMPR1B^+ cells. In contrast, RCGD 423 and LIF acted to maintain cells with the BMPR1B+ phenotype.
# BMPR1B+LIFR+ human adult articular chondrocytes were sorted using FACS and deposited in 96-well culture plates at density 10,000 cells per well in DMEM/F12 culture medium (Invitrogen) supplemented with 1% FBS. Growth factors or RCGD 423 were added at the time of plating. After 1, 3 and 7 days cultures were re-analyzed with FACS using an antibody against BMPR1B.
# [3] = system: fetal articular cartilage explants; experiment: Apoptosis / survival in fetal articular cartilage explants (TUNEL, flow cytometry); type: cell-based, human; conditions: for fetal chondrocyte survival: Annexin V-FITC cell sorting; for apoptotic cells: fetal cartilage explants, inhibitor 24 hours
# Description: (§4) FIGS. 26A-26J. LIF/STAT3/MYC signaling is prominent in fetal articular chondrocytes and can activate a fetal-like phenotype in adult cells. (FIG. 26A) Levels of phospho-STAT3 (pSTAT3) and MYC protein were quantitated in human fetal and adult articular chondrocytes relative to histone H3. (FIG. 26B) Effects of soluble LIF receptor (sLIFR) on MYC and pSTAT3 protein levels on fetal articular chondrocytes after 72 hours. (FIG. 26C) Detection of apoptotic cells using TUNEL staining and flow cytometry analysis of fetal articular cartilage explants cultured in the absence (control) or presence of a MYC (10058-F4) or STAT3 (STATTIC) inhibitor for 24 hours. (FIG. 26D) Quantification of proliferating cells via EdU incorporation in fetal articular cartilage explants and also by flow cytometry analysis for BrdU. Scale bars represent 100 μm. (FIG. 26E) Assessment of metabolic activity of human fetal articular chondrocytes cultured in the presence or absence of MYC or STAT3 inhibitors. (FIG. 26F) Migration capacity of fetal articular chondrocytes was assessed using a Transwell® assay in the absence or presence of MYC and STAT3 inhibitors. (FIG. 26G) Protein levels of MYC and pSTAT3 were measured in adult human articular chondrocytes with and without incubation with LIF. Data are shown normalized to histone H3. (FIG. 26H) Migratory capacity of adult human articular chondrocytes in a Transwell® assay measured in the presence or absence of LIF. (FIG. 26I) Single adult human articular chondrocytes were cultured with or without LIF for 5 weeks to allow detection of colony-forming cells. (FIG. 26J) Explants of adult pig articular cartilage were incubated with EdU in the presence or absence of LIF to detect proliferating cells. Scale bars represent 25 μm.
# To assess the functional consequences of LIF signaling, explants of fetal cartilage were cultured with inhibitors of MYC or STAT3 (Schust et al., 2006) and then TUNEL stained; flow cytometry was used to quantitate the results of parallel experiments. […] MYC activity has been documented previously in cancer cell lines to regulate mitochondrial function (Fan et al., 2010). […]
# TdT-mediated dUTP nick-end labeling (TUNEL) or EdU assays were performed by using in situ cell death detection kit (TUNEL, Roche Diagnostics GmbH, Germany) or Click-iT® Assay Kit obtained from Invitrogen (Carlsbad, Calif.), respectively, as described in the manufacturer's protocol. […] After staining sections were analyzed using fluorescent microscopy. Apoptosis was evaluated by flow cytometry with a Fortessa (BD Biosciences, San Jose, Calif.) cytometer using the Annexin V-FITC (Miltenyi Biotec, San Diego, Calif.) antibody. […]
# fetal cartilage explants = experiment: Proliferation (BrdU, EdU) in fetal cartilage explants; type: cell-based, human
# Description: as §4, with “Data are shown normalized to histone H3.” left out, “(FIG. 26I) Single adult human articular chondrocytes were cultured with or without LIF for 5 weeks to allow detection of colony-forming cells. (FIG. 26J) Explants of adult pig articular cartilage were incubated with EdU in the presence or absence of LIF to detect proliferating cells. Scale bars represent 25 μm.” left out
# [4] = system: human fetal articular chondrocytes; experiment: Cellular metabolism (Seahorse), human fetal articular chondrocytes; type: cell-based
# Description: The mitochondrial assay cellular oxygen consumption and mitochondrial function was carried out to measure basal respiration using XF24 instrument (Seahorse Biosciences) according to manufacturer instructions. Tested cells (100,000 cells per well) we plated into 24-well test plates 48 hours prior to experimentation. Oxygen consumption rates and extracellular acidification rates were measured every 10 minutes for up to 60 minutes (Rate 1-6).
# [5] = system: fetal BMPR1B+ chondrocytes; experiment: Clonogenic potential of fetal chondrocytes; type: cell-based, human
# Excerpt: FIGS. 12A-12D. […] Cell sorting results for control (FIG. 12A), p-STAT3 inhibitor (FIG. 12B) and c-MYC inhibitor (FIG. 12C). y-axis: FSC (forward scatter). x-axis: increasing concentration of Annexin V-FITC. (FIG. 12D) Histogram depicting % clonogenic cells (fetal BMPR1B+ chondrocytes) under: control, p-STAT3 and c-MYC inhibitor conditons.
# To test the ability of LIF to stimulate LIFR^+ cells and cause their activation in situ, we exposed human adult articular cartilage cells to high doses of LIF for 72 hours (FIG. 5A).
# For clonal assays cartilage cells were sorted by FACS and deposited into 96-well culture plates at 1 cell/well in DMEM/F12 culture medium supplemented with 1% FCS with or without LIF or RCGD 423. After 4 weeks clones (colonies with 50 cells or more) were counted using light microscopy in at least 300 wells for each culture condition.
compound,measurement,setting,value
IL-6: IL-6 family cytokine,levels of MYC,pSTAT3 and MYC,increase
same,levels of pSTAT3,pSTAT3 and MYC,increase
same,activation of AKT,[1],stimulated the activation
same,activation of the MAPK pathway,[1],stimulated the activation
same,"transcription of matrix degrading enzymes (MMP13, ADAMTS4 and ADAMTS5)",[2],neither cytokine resulted in substantial transcriptional upregulation
FGF2: known mitogen for cartilage,BMPR1B+ chondrocytes in culture,BMPR1B+ chondrocytes,dramatic loss
CCc1ccc(/C=C2/SC(=S)NC2=O)cc1 [10058-F4],fetal chondrocyte survival,[3],markedly reduced
same,apoptotic cells,[3],strongly significant increases
same,incorporation of BrdU and EdU,fetal cartilage explants,greatly reduced
same,glycolysis,[4],unaffected
same,clonogenic / clonal potential of fetal chondrocytes,[5],markedly reduced
O=[N+]([O-])c1ccc2c(c1)S(=O)(=O)C=C2 [STATTIC],fetal chondrocyte survival,[3],markedly reduced
same,apoptotic cells,[3],strongly significant increases
same,incorporation of BrdU and EdU,fetal cartilage explants,greatly reduced
same,glycolysis,[4],unaffected
same,clonogenic / clonal potential of fetal chondrocytes,[5],dramatically reduced
same,clonogenic / clonal potential of fetal chondrocytes,[5]; listed as p-STAT3 inhibitor,markedly reduced
TNF-α,levels of MYC,pSTAT3 and MYC,inhibit accumulation
same,levels of pSTAT3,pSTAT3 and MYC,inhibit accumulation
same,increases in pSTAT3 and MYC in the presence of RCGD 423,pSTAT3 and MYC; co-stimulation of cytokine and RCGD 423,completely suppressed; also recorded: prevents the increases
same,NF-κB protein,[1],increased
same,activation of AKT,[1],strong activation
same,activation of the MAPK pathway,[1],strong activation
same,"transcription of matrix degrading enzymes (MMP13, ADAMTS4 and ADAMTS5)",[2],upregulation
